Tested on: SARS-CoV-2
Test: Multi-color immunofluorescence staining and tissue cytometry (Tissue FAXS) of infected rhesus macaque tissues
Assay type: in vivo, rhesus macaques
Source text: To further verify the antiviral effect of FNC in the thymus, viral S-protein in the thymus was detected with immune staining. […] Tissue ACE2 was stained red, and viral S-protein was stained green. More green signals were detected in the thymus of the untreated monkey than in the FNC-treated one. Viral S-protein was quantitatively measured in the thymus with the Tissue FAXS platform and Tissue Quest software (Tissue Gnostics).[10],[26]–[30] […] The results of all eight monkeys are shown in Supplementary Fig. 10. […] Further evaluation of thymus cells undergoing programmed death was done with TUNEL staining, followed by quantitation with Tissue FAXS platform and Tissue Quest software (Tissue Gnostics, described in Methods). As shown in Supplementary Fig. 11, the number of apoptotic thymus cells from the untreated virus (+) monkeys was much higher than that from the FNC-treated ones.
Fig. 5 FNC-protected thymus from the damage by SARS-CoV-2 infection. By the end of the experiment, the RM monkeys have practiced euthanasia, and the thymus samples were collected. a The representative images of the multi-color immunofluorescent staining were for ACE2 (red) and S protein (green) in the thymus of the RM monkeys that were inoculated with SARS-CoV-2 and treated or untreated with FNC. The regions of interest (ROI) are boxed in white, and their magnified photos are shown in the middle, with a decomposition diagram on the right. […] The regions of interest (ROI) are boxed in white, and their magnified photos are shown below. Data are presented as mean ± SEM (n = 4), *p < 0.05, FNC-treated group vs. untreated group, by Mann–Whitney U test TEXT PRINTED IN THE PICTURE: (b) FNC: ACE2 Mean Intensity / ACE2 Area (um2): 26.43%; S-protein Mean Intensity / S protein Area (um2): 9.83% DOUBTS OF THE COPYIST ABOUT THIS PICTURE: Panel b prints no group label. […] They are left out because an untreated control is not a substance. / The percentages in panel b have no printed measure. The axis titles of each plot were used as the measure.
Tyramide Signal Amplification (TSA)^3 method was used for single staining of IL-4, IL-10, IL13, RORγt and tunnel; double staining of CD3 and CD20, ACE2 and S-protein; as well as triple staining of CD3, CD4 and CD8; ACE2, S-protein and N-protein. In brief, for each marker, the samples were treated with rabbit primary antibody and then incubated with HRP-conjugated goat anti-rabbit secondary antibody. After washing, slides were incubated with fluorescent reagent then heated with microwave oven to remove the combined antibodies. The antibodies were in Table S5.
As described by Kaneko and colleagues,^4 microscopy-based multi color tissue cytometry was applied for quantitative analysis. In brief, images of the tissue specimens were acquired through the Tissue FAXS platform (Tissue Gnostics).^5,6 The area of the detected tissue was acquired as a digital gray scale image in four channels with filter settings for FITC, Cy3, Cy5 and DAPI. Cells of each phenotype were identified and quantitated, relative to the positive controls.

[1] = FNC-treated monkeys, n = 4, Tissue FAXS

[N-]=[N+]=N[C@]1(CO)O[C@@H](n2ccc(N)nc2=O)[C@@H](F)[C@@H]1O [FNC, 2′-deoxy-2′-β-fluoro-4′-azidocytidine]
viral S- and N-protein signal in the lung (immune staining) (FNC-treated monkeys vs untreated): noticeably reduced
S-protein-positive cells in thymus, proportion [1]: 8.36 ± 4.84%
absolute numbers of ACE2+ cells in thymus [1]: 38,929 ± 19,470 cells
number of S-protein-positive cells in thymus [1]: 8941 ± 5436 cells
relative proportion of ACE2+ cells in thymus [1]: 35.96 ± 16.90%
